Where two headings read alike, the source gives them in different places.
Assays:
[1] = cited from earlier work
[2] = Protonation constants with enthalpies and entropies, 15.0-45.0 °C; assay type: physicochemical; conditions: for ΔH° of log K carb Prot 2 / ΔH° of log K prot / ΔS° of log K carb Prot 2 / ΔS° of log K prot: 15.0-45.0 °C
From the text: From the data in Table 2 the first protonation constants of AMPy, log K prot, are similar to MEA and BZA and fall within a suitable range for CO2 capture processes. Importantly, the large and desired protonation enthalpy (ΔH°) observed for BZA is largely maintained in the AMPy derivatives (−53.9 to −46.6).

[3] = Carbamate stability constants with enthalpies and entropies, 15.0-45.0 °C; assay type: physicochemical
[4] = pKa at 25 °C; assay type: physicochemical
[5] = Bubble reactor precipitation propensity with pure CO2; assay type: physicochemical; conditions: pure CO2 at atmospheric pressure, ambient temperature, aqueous
Method: As part of the absorbent screening process concentrated aqueous 3-AMPy was evaluated for its potential to form solid precipitates in the presence of CO2 at high concentrations. […] A simple bubble reactor was utilised to determine the precipitation propensity while passing a pure CO2 gas stream at atmospheric pressure into a concentrated 3-AMPy solution held at ambient temperature. A concentration of 80 wt % 3-AMPy was achieved before precipitation of the carbamate salt was observed. While a precipitate was observed, it is unlikely this will occur in the pilot plant given the aggressive conditions employed in the simple lab based study. Furthermore, similar precipitation behaviour has been observed for other common aqueous amines in highly concentrated solutions but which are operated successfully in pilot plants.

[6] = water, Table 7, (aminomethyl)pyridines, read-out: pKa of conjugate acid at 25° C. in water

Row | SMILES | ΔH° of log K carb Prot 2 [2] [kJ · mol^−1] | ΔH° of log K prot [2] [kJ · mol^−1] | ΔS° of log K carb Prot 2 [2] [J · mol^−1 · K^−1] | ΔS° of log K prot [2] [J · mol^−1 · K^−1] | log K carb Prot 2 ([2]; 15 °C) | log K prot ([2]; 15 °C) | log K carb Prot 2 ([2]; 25 °C) | log K prot ([2]; 25 °C) | log K prot ([2]; 35 °C) | log K carb Prot 2 ([2]; 45 °C) | log K prot ([2]; 45 °C) | ΔH° of log K carb ([3]; 15.0-45.0 °C) [kJ · mol^−1] | ΔS° of log K carb ([3]; 15.0-45.0 °C) [J · mol^−1 · K^−1] | log K carb (carbamate stability constant) ([3]; 15 °C) | log K carb (carbamate stability constant) ([3]; 25 °C) | log K carb (carbamate stability constant) ([3]; 35 °C) | log K carb (carbamate stability constant) ([3]; 45 °C) | pKa ([4]; 25 °C, read-out: pKa) | pKa at 25° C. ([1]; Table 8) | pKa at 25° C. [1] | also measured
1 | OCCC1CCCCN1 (stereo not shown) [2-piperidinylethanol] |  |  |  |  |  |  |  |  |  |  |  |  |  |  |  |  |  |  | 10.5 | 10.5 | 
2 | OCC1CCNCC1 [4-piperidinylmethanol] |  |  |  |  |  |  |  |  |  |  |  |  |  |  |  |  |  |  | 10.6 | 10.6 | 
3 | Nc1cccnc1 [3-Aminopyridine, reference compound] |  |  |  |  |  |  |  |  |  |  |  |  |  |  |  |  |  |  |  |  | pKa of conjugate acid at 25° C. in water ([1]; Table 7, aniline and aminopyridines): 6.3
4 | OCC1CCCCN1 (stereo not shown) [2-piperidinylmethanol] |  |  |  |  |  |  |  |  |  |  |  |  |  |  |  |  |  |  | 10.1 | 10.1 | 
5 | NCc1ccccn1 [2-AMPy, 2-(aminomethyl)pyridine] | −17.9 | −46.6 | 24.5 | −10.1 | 1.96 | 8.98 | 1.86 | 8.68 | 8.41 | 1.75 | 8.19 |  |  |  |  |  |  | 8.6 |  |  | pKa [4, 6]: 8.7

Now from value to compound, other results behind:

Row | ΔH° of log K carb Prot 2 [2] [kJ · mol^−1] | ΔH° of log K prot [2] [kJ · mol^−1] | ΔS° of log K carb Prot 2 [2] [J · mol^−1 · K^−1] | ΔS° of log K prot [2] [J · mol^−1 · K^−1] | log K carb Prot 2 ([2]; 15 °C) | log K prot ([2]; 15 °C) | log K carb Prot 2 ([2]; 25 °C) | log K prot ([2]; 25 °C) | log K prot ([2]; 35 °C) | log K carb Prot 2 ([2]; 45 °C) | log K prot ([2]; 45 °C) | ΔH° of log K carb ([3]; 15.0-45.0 °C) [kJ · mol^−1] | ΔS° of log K carb ([3]; 15.0-45.0 °C) [J · mol^−1 · K^−1] | log K carb (carbamate stability constant) ([3]; 15 °C) | log K carb (carbamate stability constant) ([3]; 25 °C) | log K carb (carbamate stability constant) ([3]; 35 °C) | log K carb (carbamate stability constant) ([3]; 45 °C) | pKa ([4]; 25 °C, read-out: pKa) | SMILES | pKa at 25° C. ([1]; Table 8) | pKa at 25° C. [1] | also measured
6 | −25.5 | −53.9 | 15.3 | 19.6 | 3.84 | 8.77 | 3.65 | 8.43 | 8.08 | 3.41 | 7.86 | −30.05 | −58.97 | 2.35 | 2.22 | 2.02 | 1.84 | 8.6 | NCc1ccncc1 [4-AMPy, 4-(aminomethyl)pyridine] |  |  | log K carb Prot 2 ([2]; 35 °C): 3.48; ΔH° of log K carb Prot ([3]; 15.0-45.0 °C): −38.08 kJ · mol^−1; ΔS° of log K carb Prot ([3]; 15.0-45.0 °C): 4.91 J · mol^−1 · K^−1; log K carb Prot ([3]; 15 °C): 7.15; log K carb Prot ([3]; 25 °C): 6.95; log K carb Prot ([3]; 35 °C): 6.69; log K carb Prot ([3]; 45 °C): 6.52; pKa [4, 6]: 8.4
7 |  | −59.5 |  | 20 |  | 9.77 |  | 9.43 | 8.95 |  | 8.61 | −36 | −82 | 2.20 | 2.01 | 1.81 | 1.58 |  | NCc1ccccc1 [BZA, benzylamine, reference compound] |  |  | 
8 | −14.5 | −50.6 | −15.2 | 0.8 | 3.42 | 9.11 | 3.34 | 8.83 | 8.51 | 3.17 | 8.26 | −36.83 | 82.97 | 2.34 | 2.11 | 1.93 | 1.70 | 8.6 | NCc1cccnc1 [3-AMPy, 3-(aminomethyl)pyridine] |  |  | log K carb Prot 2 ([2]; 35 °C): 3.25; concentration achieved before precipitation of the carbamate salt [5]: 80 wt %; pKa [4, 6]: 8.8
9 |  |  |  |  |  |  |  |  |  |  |  | −18 | −35 | 1.85 | 1.76 | 1.66 | 1.55 |  | NCCO [MEA, monoethanolamine, reference compound] |  |  | 
